Numbers after ± are expanded uncertainties.
Columns and labels:
[1] = xn = mol fraction of the nth substance listed; conditions: 101 kPa, Liquid
[2] = 101.33 kPa, Liquid; for speed of sound: Pulse-echo method

c1ccncc1 [pyridine] + CC(C)=O
[1]
Conditions	mass density [kg/m3]
293.15 K, x2 = 0.0577	973.393 ± 0.22
293.15 K, x2 = 0.1007	966.028 ± 0.23
293.15 K, x2 = 0.1536	956.946 ± 0.24
293.15 K, x2 = 0.2043	948.163 ± 0.25
293.15 K, x2 = 0.2219	945.011 ± 0.26
293.15 K, x2 = 0.2968	931.713 ± 0.28
293.15 K, x2 = 0.3537	921.354 ± 0.29
293.15 K, x2 = 0.4051	911.899 ± 0.3
293.15 K, x2 = 0.5191	890.383 ± 0.34
293.15 K, x2 = 0.5519	884.082 ± 0.35
293.15 K, x2 = 0.5969	875.296 ± 0.36
293.15 K, x2 = 0.6425	866.297 ± 0.37
293.15 K, x2 = 0.703	854.168 ± 0.39
293.15 K, x2 = 0.7504	844.514 ± 0.41
293.15 K, x2 = 0.8066	832.904 ± 0.42
293.15 K, x2 = 0.8569	822.218 ± 0.44
293.15 K, x2 = 0.9019	812.518 ± 0.45
293.15 K, x2 = 0.9456	803.006 ± 0.47
298.15 K, x2 = 0.0514	969.365 ± 0.22
298.15 K, x2 = 0.0969	961.623 ± 0.23
298.15 K, x2 = 0.1486	952.705 ± 0.25
298.15 K, x2 = 0.2023	943.375 ± 0.26
298.15 K, x2 = 0.2444	935.93 ± 0.27
298.15 K, x2 = 0.296	926.692 ± 0.28
298.15 K, x2 = 0.3544	916.021 ± 0.3
298.15 K, x2 = 0.3965	908.33 ± 0.31
298.15 K, x2 = 0.4516	898.006 ± 0.33
298.15 K, x2 = 0.5036	888.119 ± 0.34
298.15 K, x2 = 0.594	870.616 ± 0.37
298.15 K, x2 = 0.6454	860.492 ± 0.38
298.15 K, x2 = 0.6971	850.007 ± 0.4
298.15 K, x2 = 0.7518	838.783 ± 0.41
298.15 K, x2 = 0.8049	827.707 ± 0.43
298.15 K, x2 = 0.8456	819.096 ± 0.44
298.15 K, x2 = 0.8955	808.385 ± 0.46
298.15 K, x2 = 0.9456	797.415 ± 0.47
303.15 K, x2 = 0.0493	964.637 ± 0.23
303.15 K, x2 = 0.0954	956.714 ± 0.24
303.15 K, x2 = 0.1463	947.874 ± 0.25
303.15 K, x2 = 0.1983	938.736 ± 0.27
303.15 K, x2 = 0.2424	930.863 ± 0.28
303.15 K, x2 = 0.2929	921.779 ± 0.29
303.15 K, x2 = 0.3522	910.875 ± 0.31
303.15 K, x2 = 0.4048	901.126 ± 0.32
303.15 K, x2 = 0.4497	892.629 ± 0.33
303.15 K, x2 = 0.497	883.593 ± 0.35
303.15 K, x2 = 0.5412	875.069 ± 0.36
303.15 K, x2 = 0.5965	864.243 ± 0.38
303.15 K, x2 = 0.6594	851.677 ± 0.39
303.15 K, x2 = 0.6912	845.142 ± 0.4
303.15 K, x2 = 0.7491	833.115 ± 0.42
303.15 K, x2 = 0.8475	812.305 ± 0.45
303.15 K, x2 = 0.8946	802.071 ± 0.47
303.15 K, x2 = 0.9443	791.125 ± 0.48

CNc1ccccc1 [N-methylaniline]
[2]
Conditions	mass density [kg/m3]	speed of sound [m/s]
293.15 K	986.077 ± 0.93	1582.3 ± 2.1
298.15 K	982.066 ± 0.93	1564.4 ± 2.1
303.15 K	978.011 ± 0.93	1545.5 ± 2.1

Nc1ccccc1 [aniline]
[2]
Conditions	mass density [kg/m3]	speed of sound [m/s]
293.15 K	1021.7 ± 0.21	1657 ± 0.9
298.15 K	1017.41 ± 0.2	1638.6 ± 0.9
303.15 K	1013.04 ± 0.2	1619.2 ± 0.9

c1ccncc1 [pyridine]
[2]
Conditions	mass density [kg/m3]	speed of sound [m/s]
293.15 K	983.053 ± 0.2	1436.7 ± 0.9
298.15 K	978.05 ± 0.21	1416.7 ± 0.9
303.15 K	972.98 ± 0.21	1396.6 ± 0.9

CC(C)=O [acetone]
[2]
Conditions	mass density [kg/m3]	speed of sound [m/s]
293.15 K	790.694 ± 0.49	1182.8 ± 0.8
298.15 K	785.32 ± 0.5	1160.7 ± 0.8
303.15 K	778.812 ± 0.51	1138.7 ± 0.8

CNc1ccccc1 [N-methylaniline] + CC(C)=O
[1]
Conditions	mass density [kg/m3]
293.15 K, x2 = 0.0565	979.562 ± 0.86
293.15 K, x2 = 0.1032	973.934 ± 0.81
293.15 K, x2 = 0.1494	968.145 ± 0.77
293.15 K, x2 = 0.1916	962.605 ± 0.73
293.15 K, x2 = 0.251	954.413 ± 0.68
293.15 K, x2 = 0.2952	948.053 ± 0.64
293.15 K, x2 = 0.3555	938.912 ± 0.6
293.15 K, x2 = 0.4039	931.04 ± 0.57
293.15 K, x2 = 0.4478	923.576 ± 0.54
293.15 K, x2 = 0.4981	914.659 ± 0.52
293.15 K, x2 = 0.5489	905.091 ± 0.5
293.15 K, x2 = 0.5965	895.722 ± 0.48
293.15 K, x2 = 0.6485	884.852 ± 0.47
293.15 K, x2 = 0.7018	873.046 ± 0.46
293.15 K, x2 = 0.7472	862.27 ± 0.46
293.15 K, x2 = 0.802	848.69 ± 0.45
293.15 K, x2 = 0.8563	834.277 ± 0.46
293.15 K, x2 = 0.9053	820.343 ± 0.46
293.15 K, x2 = 0.9548	805.391 ± 0.47
298.15 K, x2 = 0.044	977.005 ± 0.88
298.15 K, x2 = 0.0984	970.455 ± 0.82
298.15 K, x2 = 0.1447	964.607 ± 0.77
298.15 K, x2 = 0.1996	957.353 ± 0.72
298.15 K, x2 = 0.2503	950.29 ± 0.68
298.15 K, x2 = 0.2919	944.327 ± 0.65
298.15 K, x2 = 0.3511	935.283 ± 0.6
298.15 K, x2 = 0.3924	928.532 ± 0.58
298.15 K, x2 = 0.452	918.415 ± 0.55
298.15 K, x2 = 0.4948	910.794 ± 0.53
298.15 K, x2 = 0.5563	899.086 ± 0.5
298.15 K, x2 = 0.6004	890.231 ± 0.49
298.15 K, x2 = 0.6473	880.387 ± 0.48
298.15 K, x2 = 0.6962	869.434 ± 0.47
298.15 K, x2 = 0.7506	856.501 ± 0.46
298.15 K, x2 = 0.8009	843.758 ± 0.46
298.15 K, x2 = 0.8518	830.205 ± 0.46
298.15 K, x2 = 0.8986	816.915 ± 0.47
298.15 K, x2 = 0.9488	801.799 ± 0.48
303.15 K, x2 = 0.0461	972.638 ± 0.88
303.15 K, x2 = 0.0934	966.889 ± 0.83
303.15 K, x2 = 0.1524	959.343 ± 0.77
303.15 K, x2 = 0.1937	953.815 ± 0.73
303.15 K, x2 = 0.2442	946.596 ± 0.69
303.15 K, x2 = 0.3357	933.026 ± 0.62
303.15 K, x2 = 0.3991	922.737 ± 0.58
303.15 K, x2 = 0.4904	906.677 ± 0.53
303.15 K, x2 = 0.5507	895.228 ± 0.51
303.15 K, x2 = 0.5949	886.274 ± 0.49
303.15 K, x2 = 0.6467	875.21 ± 0.48
303.15 K, x2 = 0.6928	864.807 ± 0.47
303.15 K, x2 = 0.7424	852.961 ± 0.47
303.15 K, x2 = 0.7993	838.524 ± 0.47
303.15 K, x2 = 0.8469	825.646 ± 0.47
303.15 K, x2 = 0.8977	811.117 ± 0.48
303.15 K, x2 = 0.9484	795.598 ± 0.49

Nc1ccccc1 [aniline] + CC(C)=O
[1]
Conditions	mass density [kg/m3]
293.15 K, x2 = 0.0522	1013.71 ± 0.2
293.15 K, x2 = 0.1078	1004.97 ± 0.18
293.15 K, x2 = 0.1567	996.941 ± 0.18
293.15 K, x2 = 0.2074	988.429 ± 0.19
293.15 K, x2 = 0.249	981.269 ± 0.2
293.15 K, x2 = 0.3016	971.707 ± 0.22
293.15 K, x2 = 0.3454	963.326 ± 0.23
293.15 K, x2 = 0.3832	955.799 ± 0.24
293.15 K, x2 = 0.4313	946.013 ± 0.26
293.15 K, x2 = 0.4908	933.416 ± 0.28
293.15 K, x2 = 0.5497	920.272 ± 0.29
293.15 K, x2 = 0.583	912.529 ± 0.31
293.15 K, x2 = 0.6446	897.535 ± 0.33
293.15 K, x2 = 0.6911	885.684 ± 0.35
293.15 K, x2 = 0.7465	870.629 ± 0.37
293.15 K, x2 = 0.8046	854.022 ± 0.39
293.15 K, x2 = 0.8497	840.545 ± 0.41
293.15 K, x2 = 0.9045	823.238 ± 0.44
293.15 K, x2 = 0.9475	809.118 ± 0.46
298.15 K, x2 = 0.0569	1008.67 ± 0.19
298.15 K, x2 = 0.1088	1000.44 ± 0.18
298.15 K, x2 = 0.1539	993.118 ± 0.19
298.15 K, x2 = 0.1978	985.694 ± 0.2
298.15 K, x2 = 0.2484	976.895 ± 0.21
298.15 K, x2 = 0.3039	966.77 ± 0.23
298.15 K, x2 = 0.3505	957.976 ± 0.24
298.15 K, x2 = 0.4114	945.773 ± 0.26
298.15 K, x2 = 0.4585	935.933 ± 0.27
298.15 K, x2 = 0.5035	926.122 ± 0.29
298.15 K, x2 = 0.5501	915.531 ± 0.3
298.15 K, x2 = 0.5922	905.703 ± 0.32
298.15 K, x2 = 0.6499	891.425 ± 0.34
298.15 K, x2 = 0.6993	878.643 ± 0.36
298.15 K, x2 = 0.7522	864.125 ± 0.38
298.15 K, x2 = 0.8082	848.052 ± 0.4
298.15 K, x2 = 0.8533	834.272 ± 0.42
298.15 K, x2 = 0.8951	821.048 ± 0.44
298.15 K, x2 = 0.9545	801.258 ± 0.47
303.15 K, x2 = 0.0515	1005.02 ± 0.18
303.15 K, x2 = 0.1002	997.272 ± 0.18
303.15 K, x2 = 0.1475	989.506 ± 0.19
303.15 K, x2 = 0.1926	981.799 ± 0.2
303.15 K, x2 = 0.2399	973.527 ± 0.22
303.15 K, x2 = 0.3024	962.003 ± 0.23
303.15 K, x2 = 0.3475	953.088 ± 0.25
303.15 K, x2 = 0.3947	943.989 ± 0.26
303.15 K, x2 = 0.4503	932.55 ± 0.28
303.15 K, x2 = 0.4979	922.075 ± 0.29
303.15 K, x2 = 0.5502	910.191 ± 0.31
303.15 K, x2 = 0.6037	897.422 ± 0.33
303.15 K, x2 = 0.6464	886.697 ± 0.34
303.15 K, x2 = 0.6975	873.362 ± 0.36
303.15 K, x2 = 0.7548	857.721 ± 0.39
303.15 K, x2 = 0.8078	842.147 ± 0.41
303.15 K, x2 = 0.8567	827.148 ± 0.43
303.15 K, x2 = 0.9014	812.779 ± 0.46
303.15 K, x2 = 0.9494	796.575 ± 0.48

— the NIST ThermoML archive (doi:10.1021/je900874z)
